# In US20040043942A1, “Vitamin preparations for reducing oxygen consumption during physical efforts” (priority 1996, published 2004):
# Where “and” joins values, the source holds several entries; their conditions need not be identical. Equal entries are not always repeated.
# Legend:
# [1] = test system: muscle glycogen synthesis; test: stimulation of glycogen synthesis and of anaerobic glucose breakdown in the muscle (general statement); assay type: in vivo; conditions: even if taken together with vitamin B1 and vitamin C
# [2] = test system: two male individuals, trained for endurance cycling; test: Example 39 a): ergometer test, medicaments and Preparations applied 15 minutes before the test; assay type: in vivo, human
# Method: Analogously to Example 37, the following studies a) to c) were carried out on two male individuals, trained for endurance cycling and kept on a permanently carbohydrate-rich diet; individual A (weighing 67 kg) having a maximum oxygen uptake capacity of 3.3 l and an oxygen transport volume per heart beat of 29 ml (corresponding to 0.6 kJ), and individual B (weighing 74 kg) having a maximum oxygen uptake capacity of 4.5 l and an oxygen transport volume per heart beat of 36 ml (corresponding to 0.75 kJ). The following preparations were used, in which the indicated amounts correspond to one dose unit and which were obtained by dissolving or suspending the components in water and gelling the mixture:
# H-Gly-Gly-OH was bought from Novabiochem, Läufelfingen, Switzerland. Insulin was injected subcutaneously, while the other medicaments were ingested alone or together with one of Preparations I-IV.
# a) In a first study, insulin or antidiabetic sulphonylurea derivatives were applied, alone or in combination with gelatin and/or Preparation I or II, 15 minutes before the tests. In the tests, individual A was subjected to a workload of 100 W (60 r.p.m.) for 15 minutes (tests A1-A8), and individual B was subjected to a workload of 175 W (60 r.p.m.) for 10 minutes (tests B9-B29).
Molecule,stimulation of glycogen synthesis and of the anaerobic glucose breakdown in the muscle (in words) [1],effect on heat production and oxygen consumption induced by constant physical work loads (in words) ([2]; applied 15 minutes before the test),"Oxygen consumption ([2]; individual B, 175 W for 10 min, 15 min before: 5 I.U. insulin s.c., 2.5 mg glibenclamide alone, with 5 mg gelatin: 100 μg glibenclamide or 10 mg chlorpropamide, Prep. one dose unit)"
O=C(CO)[C@@H](O)[C@H](O)[C@H](O)CO [fructose],ineffective,–,–
OC[C@H]1O[C@@](CO)(O[C@H]2O[C@H](CO)[C@@H](O)[C@H](O)[C@H]2O)[C@@H](O)[C@@H]1O [sucrose],ineffective,–,–
insulin,–,increase the heat production and oxygen consumption,32 liter and 33 liter (2×)
